Format in all cases: functional, cell-based
For one test, the system named is MDA-MB-231. Briefly: Antiproliferative activity against human MDA-MB-231 cells assessed as reduction in cell proliferation incubated for 48 hrs by CCK-8 assay. As to conditions: MDA-MB-231, 48 h. On the technique in general: Tetrazolium assays rely on reduction of a dye to a coloured formazan, in cell work by metabolically active cells.
A further test concerns SW480. Briefly: Antiproliferative activity against human SW480 cells assessed as inhibition of cell growth incubated for 48 hrs by CCK-8 assay. The settings on record: SW480, 48 h.
The subject of the next test is HCT-116. The test can be described thus: Antiproliferative activity against human HCT-116 cells assessed as inhibition of cell growth incubated for 48 hrs by CCK-8 assay. As to conditions: HCT-116, 48 h.
The subject of another test is HT-1080. The test can be described thus: Antiproliferative activity against human HT-1080 cells assessed as inhibition of cell growth incubated for 48 hrs by CCK-8 assay. The settings on record: HT-1080, 48 h.
A further test concerns LoVo. Briefly: Antiproliferative activity against human LoVo cells assessed as inhibition of cell growth incubated for 48 hrs by CCK-8 assay.

For orientation: IC50 means the concentration that gives 50% inhibition. With `Cc1ccc(S(=O)(=O)n2cc(/C=C/C(=O)c3ccncc3)c3cc(N4CCOCC4)ccc32)cc1`, the IC50 with MDA-MB-231 was 3.51 µM. As to `COc1ccc(S(=O)(=O)n2cc(/C=C/C(=O)c3ccncc3)c3cc(N4CCOCC4)ccc32)cc1`, the IC50 with MDA-MB-231 turned out to be 7.58 µM. On the same count and under the same terms, as for `Cc1[nH]c2ccc(N3CCOCC3)cc2c1/C=C/C(=O)c1cccnc1`, the figure is 42.5 µM; as for `COc1cc(C(=O)/C=C/c2cn(C)c3ccc(N4CCOCC4)cc23)cc(OC)c1OC`, 12.1 µM. For `Cc1ccc(C(=O)/C=C/c2cn(S(=O)(=O)c3ccc([N+](=O)[O-])cc3)c3ccc(N4CCOCC4)cc23)cn1`, the IC50 in the test on MDA-MB-231 was determined as 6.25 µM. `COc1ccc(C(=O)/C=C/c2cn(S(=O)(=O)c3ccc([N+](=O)[O-])cc3)c3ccc(N4CCOCC4)cc23)c(OC)n1`: in the test with MDA-MB-231, the IC50 came to 416 µM. `CC(C)(C)OC(=O)n1cc(/C=C/C(=O)c2ccncc2)c2cc(N3CCOCC3)ccc21`: the 50% inhibitory concentration (IC50) in the test with MDA-MB-231 worked out at 7.52 µM.

With `O=C(/C=C/c1cn(S(=O)(=O)c2ccc([N+](=O)[O-])cc2)c2ccc(N3CCOCC3)cc12)c1ccco1`, the IC50 with MDA-MB-231 was determined as 27.1 µM. Still for that read-out and setting: next, `N#Cc1ccc(S(=O)(=O)n2cc(/C=C/C(=O)c3ccncc3)c3cc(N4CCOCC4)ccc32)cc1`: 5.48 µM; `c1cncc(C2=NOC(c3c[nH]c4ccc(N5CCOCC5)cc34)C2)c1` (configuration not stated): 90.3 µM.

Take `Cc1ccc(S(=O)(=O)n2cc(/C=C/C(=O)c3ccncc3)c3ccccc32)cc1`: the IC50 in the test with MDA-MB-231 was determined as 8.49 µM. As to `O=C(/C=C/c1cn(S(=O)(=O)c2ccccc2)c2ccc(N3CCOCC3)cc12)c1ccncc1`, the concentration for half-maximal inhibition (IC50) in the test with MDA-MB-231 turned out to be 7.29 µM. As to `Cc1ccc(S(=O)(=O)n2cc(C=O)c3cc(N4CCOCC4)ccc32)cc1`, the IC50 in the test with MDA-MB-231 was determined as 15.9 µM.

As for `O=C(/C=C/c1cn(S(=O)(=O)c2cccs2)c2ccc(N3CCOCC3)cc12)c1ccncc1`, the IC50 in the test with MDA-MB-231 came to 7.53 µM. On the same count and under the same terms, next, `COc1cc(C(=O)/C=C/c2cn(S(=O)(=O)c3ccc([N+](=O)[O-])cc3)c3ccc(N4CCOCC4)cc23)cc(OC)c1OC`: 15.6 µM. On to `C/C(=C\c1cn(S(=O)(=O)c2ccc([N+](=O)[O-])cc2)c2ccc(N3CCOCC3)cc12)C(=O)c1cccnc1`, for which, in the test with MDA-MB-231, the IC50 stood at 43.1 µM. For `O=C(/C=C/c1c[nH]c2ccc(N3CCOCC3)cc12)c1ccncc1`, the IC50 in the test on MDA-MB-231 was 39.3 µM.

Regarding `O=C(/C=C/c1cn(S(=O)(=O)c2ccc([N+](=O)[O-])cc2)c2ccc(N3CCOCC3)cc12)c1cncnc1`, the IC50 in the test with MDA-MB-231 came out at 1.59 µM; in the test on SW480 it was 0.716 µM; in the test with HCT-116, 1.57 µM; in the test with HT-1080 it was 0.469 µM; with LoVo, 0.679 µM.

Take `c1cc(C2=NOC(c3c[nH]c4ccc(N5CCOCC5)cc34)C2)ccn1` (configuration not stated): in the test on MDA-MB-231, the IC50 was 200 µM. `c1cc(C2=NNC(c3c[nH]c4ccc(N5CCOCC5)cc34)C2)ccn1` (configuration not stated): in the test with MDA-MB-231, the IC50 is 180 µM. `O=C(/C=C/c1cn(S(=O)(=O)c2ccc(C(F)(F)F)cc2)c2ccc(N3CCOCC3)cc12)c1ccncc1`: in the test with MDA-MB-231, the IC50 worked out at 4.81 µM. Same read-out and setting: next, `CC(C)(C)c1ccc(S(=O)(=O)n2cc(/C=C/C(=O)c3ccncc3)c3cc(N4CCOCC4)ccc32)cc1`: 7.98 µM. Take `C/C(=C\c1c[nH]c2ccc(N3CCOCC3)cc12)C(=O)c1cccnc1`: the IC50 in the test with MDA-MB-231 came out at 56.6 µM. For the compound `COc1cc(C(=O)/C=C/c2cn(S(=O)(=O)c3ccc(C)cc3)c3ccc(N4CCOCC4)cc23)cc(OC)c1OC`, the IC50 with MDA-MB-231 came to 19.9 µM. As for `O=C(/C=C/c1cn(S(=O)(=O)c2ccc(Cl)cc2)c2ccc(N3CCOCC3)cc12)c1ccncc1`, in the test on MDA-MB-231, the half-maximal inhibitory concentration (IC50) is 7.19 µM. In the case of `O=C(/C=C/c1cn(S(=O)(=O)c2ccc([N+](=O)[O-])cc2)c2cc(N3CCOCC3)ccc12)c1cccnc1`, the IC50 in the test on MDA-MB-231 came out at 0.857 µM; with SW480, 0.718 µM; in the test on HCT-116, 1.7 µM; in the test on HT-1080, 0.773 µM; with LoVo, 0.792 µM. For the compound `COc1cc(C(=O)/C=C/c2cn(CO)c3ccc(N4CCOCC4)cc23)cc(OC)c1OC`, the IC50 in the test on MDA-MB-231 was 12.5 µM. In the case of `COc1ccc(C(=O)/C=C/c2cn(S(=O)(=O)c3ccc([N+](=O)[O-])cc3)c3ccc(N4CCOCC4)cc23)cn1`, the IC50 in the test with MDA-MB-231 is 73.9 µM. As to `O=C(/C=C/c1cn(S(=O)(=O)c2ccc([N+](=O)[O-])cc2)c2ccc(N3CCOCC3)cc12)c1ncccn1`, the IC50 in the test on MDA-MB-231 was determined as 1.81 µM; with SW480, 2.03 µM; in the test with HCT-116 it was 3.46 µM; in the test with HT-1080, 1.19 µM; with LoVo it was 1.3 µM. On to `O=[N+]([O-])c1ccc(S(=O)(=O)n2cc(C3CC(c4ccncc4)=NO3)c3cc(N4CCOCC4)ccc32)cc1` (configuration not stated), for which the IC50 with MDA-MB-231 is 150 µM. Take `CC(=O)n1cc(/C=C/C(=O)c2ccncc2)c2cc(N3CCOCC3)ccc21`: in the test on MDA-MB-231, the IC50 was 7.77 µM. Same read-out and setting: as for `O=C(/C=C/c1cn(S(=O)(=O)c2ccc(Br)cc2)c2ccc(N3CCOCC3)cc12)c1ccncc1`, the figure is 9.53 µM; as for `O=C(/C=C/c1cn(S(=O)(=O)c2cccc3ccccc23)c2ccc(N3CCOCC3)cc12)c1ccncc1`, 45.4 µM.

Regarding `O=C(/C=C/c1cn(S(=O)(=O)c2ccc(F)cc2)c2ccc(N3CCOCC3)cc12)c1ccncc1`, the IC50 with MDA-MB-231 amounted to 5.48 µM.

On to `O=Cc1c[nH]c2ccc(N3CCOCC3)cc12`, for which the IC50 in the test on MDA-MB-231 amounted to 88.6 µM.

Regarding `O=C(/C=C/c1cn(S(=O)(=O)c2ccc([N+](=O)[O-])cc2)c2ccc(N3CCOCC3)cc12)c1ccccn1`, the IC50 in the test with MDA-MB-231 turned out to be 0.915 µM; in the test with SW480, 1.08 µM; in the test with HCT-116, 1.04 µM; in the test with HT-1080, 0.793 µM; in the test on LoVo it was 0.74 µM. For the compound `O=C(/C=C/c1cn(S(=O)(=O)c2ccc([N+](=O)[O-])cc2)c2ccc(N3CCOCC3)cc12)c1ccncc1`, the 50% inhibitory concentration (IC50) in the test with MDA-MB-231 was determined as 1.53 µM; in the test on SW480, 1.08 µM; in the test with HCT-116, 1.85 µM; with HT-1080, 0.681 µM; with LoVo, 0.392 µM. `O=C(/C=C/c1cn(S(=O)(=O)c2ccc(I)cc2)c2ccc(N3CCOCC3)cc12)c1ccncc1`: in the test on MDA-MB-231, the IC50 amounted to 20.5 µM. Turning to `O=C(/C=C/c1cn(S(=O)(=O)c2ccc([N+](=O)[O-])cc2)c2ccc(N3CCOCC3)cc12)c1ccc(N2CCCCC2)nc1`, the IC50 with MDA-MB-231 worked out at 151 µM. With `O=C(/C=C/c1cn(S(=O)(=O)c2ccc3ccccc3c2)c2ccc(N3CCOCC3)cc12)c1ccncc1`, the IC50 with MDA-MB-231 was found to be 12.8 µM. Take `O=C(/C=C/c1cn(Cc2ccccc2)c2ccc(N3CCOCC3)cc12)c1ccncc1`: the IC50 in the test with MDA-MB-231 turned out to be 148 µM. For `Cc1ccc(C(=O)/C=C/c2cn(S(=O)(=O)c3ccc([N+](=O)[O-])cc3)c3ccc(N4CCOCC4)cc23)c(C)n1`, the IC50 with MDA-MB-231 stood at 1.07 µM; with SW480 it was 0.655 µM; with HCT-116 it was 1.13 µM; with HT-1080, 0.754 µM; in the test with LoVo, 0.221 µM. For `O=C(/C=C/c1cn(S(=O)(=O)c2ccc([N+](=O)[O-])cc2)c2ccc(N3CCCCC3)cc12)c1cccnc1`, the IC50 in the test on MDA-MB-231 was determined as 0.816 µM; with SW480, 0.999 µM; in the test with HCT-116, 3.19 µM; with HT-1080, 0.751 µM; in the test with LoVo, 0.765 µM. For the compound `COc1cc(C(=O)/C=C/c2cn(C(=O)c3cc(OC)c(OC)c(OC)c3)c3ccc(N4CCOCC4)cc23)cc(OC)c1OC`, the IC50 with MDA-MB-231 was determined as 13.8 µM. In the case of `COc1ccc2c(c1)c(/C=C/C(=O)c1ccncc1)cn2S(=O)(=O)c1ccc(C)cc1`, the concentration for half-maximal inhibition (IC50) in the test on MDA-MB-231 came to 3.81 µM.

On to `O=C(/C=C/c1cn(S(=O)(=O)Cc2ccccc2)c2ccc(N3CCOCC3)cc12)c1ccncc1`, for which the IC50 in the test on MDA-MB-231 was 2.5 µM.

Regarding `O=C(/C=C/c1cn(S(=O)(=O)c2cccnc2)c2ccc(N3CCOCC3)cc12)c1ccncc1`, the IC50 in the test on MDA-MB-231 was determined as 2.89 µM. As for `O=C(/C=C/c1cn(S(=O)(=O)c2ccc([N+](=O)[O-])cc2)c2ccc(N3CCOCC3)cc12)c1cnc2ccccc2c1`, the IC50 in the test with MDA-MB-231 was determined as 104 µM.

Consider `O=C(/C=C/c1cn(C(=O)c2ccccc2)c2ccc(N3CCOCC3)cc12)c1ccncc1`, for which, in the test with MDA-MB-231, the IC50 stood at 7.7 µM.

For `O=C(/C=C/c1cn(S(=O)(=O)c2ccc([N+](=O)[O-])cc2)c2ccc(N3CCOCC3)cc12)c1cncc2ccccc12`, the IC50 in the test with MDA-MB-231 stood at 8.7 µM. `O=C(/C=C/c1cn(S(=O)(=O)c2ccc([N+](=O)[O-])cc2)c2ccc(N3CCOCC3)cc12)c1ccccc1`: in the test with MDA-MB-231, the IC50 worked out at 23.9 µM. Take `O=C(/C=C/c1cn(S(=O)(=O)c2ccc([N+](=O)[O-])cc2)c2ccc(N3CCSCC3)cc12)c1cccnc1`: the IC50 with MDA-MB-231 came to 3.94 µM.

For `O=C(/C=C/c1cn(S(=O)(=O)c2ccc([N+](=O)[O-])cc2)c2ccc(N3CCOCC3)cc12)c1nccs1`, in the test with MDA-MB-231, the IC50 worked out at 8 µM.

`COc1cc(C(=O)/C=C/c2c[nH]c3ccc(N4CCOCC4)cc23)cc(OC)c1OC`: the IC50 with MDA-MB-231 worked out at 11.2 µM.

The values are drawn from ChEMBL document CHEMBL6096661, “Synthesis, biological evaluation and mechanism study of a novel indole-pyridine chalcone derivative as antiproliferative agent against tumor cells through dual targeting tubulin and HK2” (Eur J Med Chem, 2025).
